We go through 21 compounds from ChEMBL document CHEMBL1146080, “Novel, achiral 1,3,4-benzotriazepine analogues of 1,4-benzodiazepine-based CCK(2) antagonists that display high selectivity over CCK(1) receptors” (J Med Chem, 2006).

In test [1] the target is T1, Gastrin/cholecystokinin type B receptor (Homo sapiens, UniProt P32239).
T1 sequence (P32239 whole entry): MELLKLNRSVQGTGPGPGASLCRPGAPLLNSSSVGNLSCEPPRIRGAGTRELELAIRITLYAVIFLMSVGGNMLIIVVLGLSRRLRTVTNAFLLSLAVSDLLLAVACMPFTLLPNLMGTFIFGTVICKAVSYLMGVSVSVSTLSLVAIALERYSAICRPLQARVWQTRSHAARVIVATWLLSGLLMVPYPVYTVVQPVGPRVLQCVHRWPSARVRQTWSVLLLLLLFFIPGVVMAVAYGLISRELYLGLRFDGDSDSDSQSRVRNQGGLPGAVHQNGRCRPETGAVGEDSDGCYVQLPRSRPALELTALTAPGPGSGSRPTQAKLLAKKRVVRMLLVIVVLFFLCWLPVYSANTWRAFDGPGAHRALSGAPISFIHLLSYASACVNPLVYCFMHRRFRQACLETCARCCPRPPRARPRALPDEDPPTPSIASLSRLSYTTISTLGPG
Briefly: Displacement of [125I]BH-CCK-8S from human recombinant CCK2 receptor expressed in NIH3T3 cells. In kind it is cell-based.

Test [2] addresses T2, Cholecystokinin receptor type A (Homo sapiens, UniProt P32238).
T2 sequence (P32238 whole entry): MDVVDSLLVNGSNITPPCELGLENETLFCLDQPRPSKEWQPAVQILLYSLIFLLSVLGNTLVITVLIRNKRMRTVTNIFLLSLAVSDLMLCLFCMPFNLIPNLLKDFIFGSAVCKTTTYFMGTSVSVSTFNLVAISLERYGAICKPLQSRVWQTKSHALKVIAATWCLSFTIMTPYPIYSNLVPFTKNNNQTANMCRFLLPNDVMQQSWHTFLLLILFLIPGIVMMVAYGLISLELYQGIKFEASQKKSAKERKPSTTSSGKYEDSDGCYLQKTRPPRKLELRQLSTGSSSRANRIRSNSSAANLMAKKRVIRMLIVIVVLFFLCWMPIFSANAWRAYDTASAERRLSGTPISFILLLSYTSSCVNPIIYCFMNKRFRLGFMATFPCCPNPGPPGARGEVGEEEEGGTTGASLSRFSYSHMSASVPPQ
Briefly: Displacement of [3H]L-364718 from human recombinant CCK1 receptor expressed in CHO cell line. The class given is cell-based.

Test [3] deals with T3, Cholecystokinin receptor type A (Homo sapiens) (UniProt P32238).
T3 sequence (whole entry): T2 sequence (P32238 whole entry)
The experiment in a line: Inhibition of [3H]L-364718 binding to human recombinant CCK1 receptor expressed in CHO cell line at 10 uM. In kind it is cell-based.

Test [4] concerns the target T4, Gastrin/cholecystokinin type B receptor (Canis lupus familiaris, UniProt P30552).
T4 sequence (P30552 whole entry): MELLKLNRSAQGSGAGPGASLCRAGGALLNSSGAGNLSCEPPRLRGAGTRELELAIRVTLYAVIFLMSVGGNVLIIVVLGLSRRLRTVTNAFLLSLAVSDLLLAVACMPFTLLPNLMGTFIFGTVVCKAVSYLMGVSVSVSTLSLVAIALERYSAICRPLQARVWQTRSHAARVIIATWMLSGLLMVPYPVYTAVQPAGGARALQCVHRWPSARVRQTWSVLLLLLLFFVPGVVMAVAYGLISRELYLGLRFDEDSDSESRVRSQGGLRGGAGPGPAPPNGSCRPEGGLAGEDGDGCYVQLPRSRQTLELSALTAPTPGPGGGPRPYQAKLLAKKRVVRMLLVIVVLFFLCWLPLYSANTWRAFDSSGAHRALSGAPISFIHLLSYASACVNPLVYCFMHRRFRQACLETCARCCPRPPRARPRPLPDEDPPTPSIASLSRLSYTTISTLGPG
Briefly: Binding affinity to canine CCK2 receptor.

Test [5] deals with T5, Gastrin/cholecystokinin type B receptor (Rattus norvegicus, UniProt P30553).
T5 sequence (P30553 whole entry): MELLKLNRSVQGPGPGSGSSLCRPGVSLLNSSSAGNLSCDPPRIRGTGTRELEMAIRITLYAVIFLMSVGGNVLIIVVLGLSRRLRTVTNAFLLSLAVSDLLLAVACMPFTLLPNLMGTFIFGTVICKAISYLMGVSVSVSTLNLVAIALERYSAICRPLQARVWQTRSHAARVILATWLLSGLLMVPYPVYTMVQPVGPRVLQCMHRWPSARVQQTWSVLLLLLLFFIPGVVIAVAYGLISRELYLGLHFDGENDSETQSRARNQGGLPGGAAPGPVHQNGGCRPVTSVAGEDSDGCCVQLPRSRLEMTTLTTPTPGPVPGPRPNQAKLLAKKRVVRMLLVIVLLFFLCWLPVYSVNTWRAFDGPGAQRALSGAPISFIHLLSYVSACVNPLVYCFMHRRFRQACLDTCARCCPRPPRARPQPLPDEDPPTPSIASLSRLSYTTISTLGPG
The experiment in a line: Affinity for CCK2 receptor assessed by inhibition of pentagastrin-stimulated acid secretion in perfused rat stomach. In kind it is functional, tissue-based. Conditions: read-out: pA2 (converted).

The target in test [6] is T2, Cholecystokinin receptor type A. Briefly: Displacement of [3H]L-364718 from human recombinant CCK1 receptor expressed in PC3 cell line. In kind it is cell-based, PC-3.
Test [7] addresses T3, Cholecystokinin receptor type A (Homo sapiens). Briefly: Inhibition of [3H]L-364718 binding to human recombinant CCK1 receptor expressed in PC3 cell line at 10 uM. As to conditions: PC-3. The class given is cell-based.
In test [8] the target is T6, Gastrin/cholecystokinin type B receptor (Rattus norvegicus) (UniProt P30553).
T6 sequence (whole entry): T5 sequence (P30553 whole entry)
Briefly: Affinity for CCK2 receptor assessed by inhibition of pentagastrin-stimulated acid secretion in perfused rat stomach at 1 uM. In kind it is functional, tissue-based.

Active and inactive are the calls of the source. No cut-off for these calls is given here.

Regarding `CNc1cccc(NC(=O)CN2N=C(c3ccccn3)c3ccccc3N(CC(=O)c3ccccc3C)C2=O)c1`, in test [1], the Ki is 288 nM.

For the compound `CC(C)(C)C(=O)CN1C(=O)N(CC(=O)Nc2cccc(O)c2)N=C(C2CCCCC2)c2ccccc21`, the results for the Ki in test [1] and in test [2] were 13.2 nM and 1510 nM, respectively.

Take `CC(C)(C)C(=O)CN1C(=O)N(CC(=O)Nc2cccc(N)c2)N=C(C2CCCCC2)c2ccccc21`: the Ki in test [1] was 26.9 nM. Further, the inhibition in test [3] was determined as 40%.

For `CNCCN(C)c1cccc(NC(=O)CN2N=C(C3CCCCC3)c3ccccc3N(CC(=O)C(C)(C)C)C2=O)c1`, the Ki in test [1] was 29.5 nM; in test [2], 8710 nM.

`CC(C)(C)C(=O)CN1C(=O)N(CC(=O)Nc2cccc(C(=O)O)c2)N=C(C2CCCCC2)c2ccccc21`: the Ki in test [4] was 12.3 nM; in test [1], 5.13 nM; in test [6] it was 11200 nM. Moreover, the Kb in test [5] was 0.977 nM.

Regarding `CNc1cccc(NC(=O)N[C@@H]2N=C(c3ccccn3)c3ccccc3N(CC(=O)C(C)(C)C)C2=O)c1` [NETAZEPIDE], the results for the Ki in test [1] and in test [6] were 0.138 nM and 30.2 nM, respectively. Also, the Kb in test [5] is 0.0794 nM.

For `CNc1cccc(NC(=O)CN2N=C(c3ccccn3)c3ccccc3N(CC(=O)N3CCCC3)C2=O)c1`, the Ki in test [1] was 2510 nM.

For `CC(C)(C)C(=O)CN1C(=O)N(CC(=O)Nc2cccc(CO)c2)N=C(C2CCCCC2)c2ccccc21`, the results for the Ki in test [1] and in test [6] were 15.1 nM and 5890 nM, respectively.

For the compound `Cc1cccc(NC(=O)CN2N=C(C3CCCCC3)c3ccccc3N(CC(=O)C(C)(C)C)C2=O)c1`, the Ki in test [1] was 8.91 nM. For the same compound, in test [7], the inhibition is 27%. Further, the pA2 entry in test [8] is “inactive”.

In the case of `CNc1cccc(NC(=O)CN2N=C(c3ccccn3)c3ccccc3N(CC(=O)C(C)(C)C)C2=O)c1`, the Ki in test [1] was 195 nM. Also, the Kb in test [5] is 224 nM. Further, in test [7], the inhibition amounted to 22%.

Take `CN(C)c1cccc(NC(=O)CN2N=C(C3CCCCC3)c3ccccc3N(CC(=O)C(C)(C)C)C2=O)c1`: the Ki in test [1] was 6.03 nM. Besides, in test [7], the inhibition was 16%.

As for `CNc1cccc(NC(=O)C[C@@H]2N=C(C3CCCCC3)c3ccccc3N(CC(=O)C(C)(C)C)C2=O)c1`, the Ki is 6.03 nM in test [1] and 1170 nM in test [6]. In addition, the Kb in test [5] was 28.2 nM.

As to `CCOCCNc1cccc(NC(=O)CN2N=C(C3CCCCC3)c3ccccc3N(CC(=O)C(C)(C)C)C2=O)c1`, the Ki in test [1] is 44.7 nM; in test [6], > 10000 nM.

Consider `CNc1cccc(NC(=O)C[C@H]2N=C(C3CCCCC3)c3ccccc3N(CC(=O)C(C)(C)C)C2=O)c1`, for which the results for the Ki in test [1] and in test [6] were 13.2 nM and 724 nM, respectively. Further, the Kb in test [5] was 28.8 nM.

For `COc1cccc(NC(=O)CN2N=C(C3CCCCC3)c3ccccc3N(CC(=O)C(C)(C)C)C2=O)c1`, in test [1], the Ki is 5.5 nM. Besides, the pA2 entry in test [8] is “inactive”. In addition, in test [3], the inhibition is 46%.

Take `CC(C)(C)C(=O)CN1C(=O)N(CC(=O)Nc2cccc(N3CCCC3)c2)N=C(C2CCCCC2)c2ccccc21`: the inhibitory constant (Ki) was 15.8 nM in test [1] and > 10000 nM in test [6].

In the case of `CNc1cccc(NC(=O)CN2N=C(c3ccccc3)c3ccccc3N(CC(=O)C(C)(C)C)C2=O)c1`, the Ki in test [1] was 74.1 nM. Also, the inhibition in test [7] is 21%.

As for `CNc1cccc(NC(=O)CN2N=C(C3CCCCC3)c3ccccc3N(CC(=O)C(C)(C)C)C2=O)c1`, the results for the Ki in test [1] and in test [6] were 7.94 nM and > 10000 nM, respectively.

Turning to `CC(C)(C)C(=O)CN1C(=O)N(CC(=O)Nc2cccc(N3CCOCC3)c2)N=C(C2CCCCC2)c2ccccc21`, the Ki in test [1] was 16.6 nM. Moreover, the inhibition in test [3] worked out at 42%.

Regarding `CC(C)(C)C(=O)CN1C(=O)N(CC(=O)Nc2cccc(-n3ccnc3)c2)N=C(C2CCCCC2)c2ccccc21`, in test [1], the Ki is 9.12 nM. In addition, in test [3], the inhibition stood at 57%.

Turning to `Cc1cccc(NC(=O)N[C@@H]2N=C(c3ccccc3)c3ccccc3N(C)C2=O)c1` [L-365260], the Ki in test [6] was 174 nM.
